Reference: patent US20070053950A1, “Composition of polymer microcapsules of biocide for coating material” (priority 2005, published 2007)

Key:
Assay type in all cases: cell-based
Chlorella fusca = test: Filter paper bioassay, antialgal activity of biocide dispersed in paint; settings: around 5 wt % Irgarol in paint; taken after 0, 15 and 30 days of dispersion; even after 100 days
Source text: (§1) W. et.al., Amer. J. Clin. Pathol., 45 (1966) p 493-496 and Thomberry, H. H. Phytopathology 40 (1950) p 419-420). […] The antifungal activity of all the composition samples is indicated by zone of inhibition that is developed around the filter paper discs against the vegetative growth after the spore germination. […] Similar type of results are obtained when microcapsules stored in paint for 12 days and 30 days are taken for such biocidal analysis. The antialgal activity of microencapsulated Irgarol and unencapsulated Irgarol against algal strains (Oscillatoria tenius and Chlorella fusca) is assessed by filter paper bioassay by method as described above for fungal activity. Unencpasulated Irgarol and microcapsules of Irgarol are dispersed in paint such that the concentration of Irgarol is around 5 wt % based on weight of paint and taken for analysis after 0 days, 15 days and 30 days of dispersion period.

Oscillatoria tenius = test: as above; settings: around 5 wt % Irgarol in paint; taken after 0, 15 and 30 days of dispersion; even after 100 days
Source text: as §1

[1] = tested on: fungal strain Aspergillus niger (NRRL337); test: Filter paper bioassay, antifungal activity of biocide dispersed in paint (zone of inhibition); settings: sample taken after 0 days of dispersion
Experimental: Microcapsules of Zinc Pyrithione and unencpasulated Zinc Pyrithione are dispersed in paint such that the concentration of Zinc Pyrithione is around 5 wt % based on weight of paint and taken for analysis after 0 days, 12 days and 30 days of dispersion period. The antifungal activity of all the composition samples is indicated by zone of inhibition that is developed around the filter paper discs against the vegetative growth after the spore germination. The zone of inhibition is measured after 2 days and 100 days after the day on which samples are taken for filter paper bioassay.

Compound | inhibitory activity against algal strain (Chlorella fusca) | inhibitory activity against algal strain (Oscillatoria tenius) | Zone of inhibition (mm) (after 2 days) A ([1]; around 5 wt % Zinc Pyrithione in paint, zone measured after 2 days) | Zone of inhibition (mm) (after 100 days) B ([1]; around 5 wt % Zinc Pyrithione in paint, zone measured after 100 days) | % Reduction in inhibition zone C = [(A − B) × 100]/A ([1]; around 5 wt % biocide in paint, from 2 days to 100 days) [%]
CSc1nc(NC2CC2)nc(NC(C)(C)C)n1 [unencapsulated irgarol, Irgarol] | very strong inhibitory activity | very strong inhibitory activity |  |  | 
Zinc Pyrithione [Unencapsulated Zinc Pyrithione] |  |  | 41 | 32 | 21.9
